1 compound from patent US20210283110A1, “COMPOUND FOR USE IN THE TREATMENT OF A DISEASE CHARACTERIZED BY DYSREGULATED MUCUS PRODUCTION AND/OR SECRETION” (UNIVERSITÄT REGENSBURG, priority 2018, published 2021) can be followed below.

SMILES strings stand for the structures.

The target of one test is T1, TMEM16A (Homo sapiens, UniProt Q5XXA6).
T1 sequence (Q5XXA6 1-986): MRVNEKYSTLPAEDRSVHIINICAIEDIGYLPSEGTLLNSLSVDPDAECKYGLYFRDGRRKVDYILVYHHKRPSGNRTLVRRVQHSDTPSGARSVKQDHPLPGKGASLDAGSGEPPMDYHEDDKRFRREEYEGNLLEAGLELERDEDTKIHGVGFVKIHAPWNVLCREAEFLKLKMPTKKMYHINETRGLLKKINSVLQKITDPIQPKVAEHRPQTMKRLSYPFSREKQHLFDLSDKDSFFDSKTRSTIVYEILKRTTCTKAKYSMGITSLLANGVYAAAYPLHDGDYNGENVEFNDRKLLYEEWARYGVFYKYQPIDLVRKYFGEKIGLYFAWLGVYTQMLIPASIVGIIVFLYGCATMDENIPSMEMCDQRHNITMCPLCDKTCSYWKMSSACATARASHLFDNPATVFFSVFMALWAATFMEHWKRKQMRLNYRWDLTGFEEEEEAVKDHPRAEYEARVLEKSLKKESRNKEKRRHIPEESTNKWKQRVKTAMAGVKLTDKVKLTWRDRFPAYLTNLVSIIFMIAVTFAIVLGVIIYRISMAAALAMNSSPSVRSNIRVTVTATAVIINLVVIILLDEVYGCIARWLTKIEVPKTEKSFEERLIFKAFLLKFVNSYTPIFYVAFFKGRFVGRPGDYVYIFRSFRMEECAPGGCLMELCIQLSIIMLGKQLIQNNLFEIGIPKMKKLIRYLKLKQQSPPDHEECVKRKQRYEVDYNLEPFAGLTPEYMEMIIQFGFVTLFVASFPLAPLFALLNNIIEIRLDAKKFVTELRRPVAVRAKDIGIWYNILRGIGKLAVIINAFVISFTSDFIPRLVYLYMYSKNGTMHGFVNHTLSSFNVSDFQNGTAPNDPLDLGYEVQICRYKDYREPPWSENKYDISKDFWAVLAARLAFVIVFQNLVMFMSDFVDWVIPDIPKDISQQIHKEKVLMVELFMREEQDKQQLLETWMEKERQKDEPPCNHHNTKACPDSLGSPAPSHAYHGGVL
As to the kind of experiment: ATP-induced current in HT29 cells expressing TMEM16A, patch clamp. Conditions: 1 μM compound applied simultaneously with ATP (wo μM), #p<0.01. The format is cell-based. Set-up: expressed in transfected cells. The source says: FIG. 2: ATP-induced current in HT29 cells expressing TMEM16A in an electrophysiological patch clamp investigation.
ATP was applied at a concentration of wo μM.

The subject of test [1] is freshly isolated crypt cells. Put plainly: ATP-induced Ca2+ rise in freshly isolated crypt cells (Fura-2). Conditions: low concentrations of niclosamide. The class given is cell-based, mouse. As for the experimental part: All methods were carried out as specified in the previous examples. For the measurements of Ca^2+, crypts were isolated from inverted proximal mouse colons using Ca^2+-free Ringer solution with 1 mM DTT and 1 μM indomethacin for 20 min at 37° C. Crypts were loaded with 10 μM Fura2-AM (Biotum, USA) and 1 mg/ml BSA (Sigma-Aldrich) in ringer solution for 1 h at RT. Intracellular Ca^2+ was measured by loading crypts with […] Fura-2/AM and 0.02% Pluronic F-127 (Life Technologies, Germany) in ringer solution for 1 h at room temperature. Fluorescence was detected in cells perfused with Ringer's solution at 37° C. using an inverted microscope (Axiovert S100, Zeiss, Germany) and a high-speed polychromator system (VisiChrome, Germany). Fura-2 was excited at 340/380 nm, and emission was recorded between 470 and 550 nm using a CoolSnap camera (CoolSnap HQ, Visitron).
It was examined whether niclosamide inhibits intestinal mucus secretion. To this end, niclosamide was added to the perfusate. […] The present inventors detected reduced Ca^2+ increase upon ATP-stimulation of freshly isolated crypt cells from Vil1-Cre TMEM16F^flox/flox mice. […] Increase in FM4-64 fluorescence in the plasma membrane is a marker for membrane exocytosis. The present inventors detected that ATP-stimulation (but not cholinergic stimulation) of HEK293 cells expressing TMEM16F induced FM4-64 fluorescence, i.e. exocytosis.

A further test relates to colon. Put plainly: Niclosamide applied in vivo (ip or gavage), then colon perfusion and PAS staining. Also noted: species or system mouse. Conditions: for ATP-induced release of mucus: three days before perfusion, 100 μM ATP. As for the experimental part: FIG. 18: Effect of niclosamide on intestinal mucus release. • A) Acute mucus secretion in excised wt colon activated by methacholine or ATP, respectively, and inhibition by acute perfusion with niclosamide (niclosamide; 10 μM). • B-D) Effect of intraperitoneal injection of niclosamide (20 mg/kg/day) on PAS staining (B,C) and acute mucus discharge induced by perfusion with 100 μM ATP (D). • E-G) Effect of application of niclosamide by gavage (20 mg/kg/day) on PAS staining (E,F) and acute mucus discharge induced by perfusion with 100 μM ATP (G). Mean±SEM; #significant difference when compared to -niclosamide (unpaired t-test); (n) number of perfused colons and PAS stainings analyzed, respectively. Bars indicate 50 μm.
It was examined whether niclosamide inhibits intestinal mucus secretion. To this end, niclosamide was added to the perfusate. […] Niclosamide was applied in vivo by intraperitoneal (ip) injection, or was applied orally by gavage three days before intestinal perfusion. […] TMEM16F plays a crucial role for intracellular Ca^2+ signaling. The present inventors detected reduced Ca^2+ increase upon ATP-stimulation of freshly isolated crypt cells from Vil1-Cre TMEM16F^flox/flox mice. In contrast, CCH-induced Ca^2+ rise was not affected. […] Increase in FM4-64 fluorescence in the plasma membrane is a marker for membrane exocytosis. The present inventors detected that ATP-stimulation (but not cholinergic stimulation) of HEK293 cells expressing TMEM16F induced FM4-64 fluorescence, i.e. exocytosis.

The next test has as its system TMEM16A or TMEM16F. Put plainly: Expression of TMEM16A / TMEM16F after niclosamide. The class given is cell-based.
A further test deals with excised wt colon. As to the kind of experiment: Acute mucus secretion in in vitro perfused excised colon, niclosamide in perfusate. Set-up: species or system mouse. Conditions: niclosamide 10 μM in perfusate. From the text:
Cholinergic stimulation released mucus from freshly isolated TMEM16A+/+ and TMEM16A−/− intestine (FIG. 6D-F). Mucus release was examined in more detail by perfusing freshly excised colon and collecting released mucus in vitro. For in vitro perfusion of intestines, mice were sacrificed and excised intestines were placed immediately in ice-cold Ringer solution and carefully flushed to remove residual luminal contents. The intestinal segments were mounted and perfused vertically in a custom-designed perfusion chamber with a constant temperature.
It was examined whether TMEM16F is also important for intestinal mucus secretion and acute mucus release was measured in freshly excised colonic segments mounted in a vertical custom-designed perfusion chamber at 37° C. and 24 mmol/1 HCO3^−/5% CO2. Secretion of mucus was induced by basolateral perfusion with methacholine (MCh) and by luminal perfusion of ATP. […]
It was examined whether niclosamide inhibits intestinal mucus secretion. […] The present inventors detected reduced Ca^2+ increase upon ATP-stimulation of freshly isolated crypt cells from Vil1-Cre TMEM16F^flox/flox mice. […] Increase in FM4-64 fluorescence in the plasma membrane is a marker for membrane exocytosis. The present inventors detected that ATP-stimulation (but not cholinergic stimulation) of HEK293 cells expressing TMEM16F induced FM4-64 fluorescence, i.e. exocytosis.

`O=C(Nc1ccc([N+](=O)[O-])cc1Cl)c1cc(Cl)ccc1O` [niclosamide, 5-chloro-N-(2-chloro-4-nitrophenyl)-2-hydroxybenzamide]: on TMEM16A, the “ATP-induced ion current arising from TMEM16A activation” value is recorded as “significantly reduced”. Also, the “ATP-induced Ca2+ rise” value in test [1] is recorded as “potently inhibited”. Besides, the “ATP-induced release of mucus” value in the test with colon (intraperitoneal injection 20 mg/kg/day) and in the test with colon (oral by gavage 20 mg/kg/day) was “completely inhibited” each time. Besides, in the test with colon (ip or oral niclosamide), the “mucus accumulation in goblet cells (PAS staining)” value was “did not accumulate”. In addition, the “expression of either TMEM16A or TMEM16F” value in the test on TMEM16A or TMEM16F is on record as “did not change”. Besides, the “mucus secretion activated by basolateral MCh” value with excised wt colon was “not”. Further, in the test on excised wt colon, the “mucus secretion activated by luminal ATP” value is reported as “clearly inhibited”.
